# Reference: ChEMBL document CHEMBL1221244, “Total synthesis and biological evaluation of tambjamine K and a library of unnatural analogs” (Bioorg Med Chem Lett, 2010)
# The source made the active and inactive calls. The calls are words filed in the database; no cut-off is given here.
# Assays:
# [1] = test system: MCF7; assay: Antiproliferative activity against human MCF7 cells assessed as cell viability at 10 uM after 48 hrs by WST-1 assay; assay type: functional; details: MCF7, 48 h, read-out: Activity
# [2] = test system: HCT-116; assay: Antiproliferative activity against human HCT116 cells after 48 hrs by WST-1 assay; assay type: functional, cell-based; details: HCT-116, 48 h
# [3] = test system: MDA-MB-231; assay: Antiproliferative activity against human MDA-MB-231 cells after 48 hrs by WST-1 assay; assay type: functional, cell-based; details: MDA-MB-231, 48 h
# [4] = test system: Caco-2; assay: Antiproliferative activity against human Caco-2 cells; assay type: functional, cell-based
# [5] = test system: SW-620; assay: Antiinvasive activity against human SW620 cells at 10 uM after 24 hrs; assay type: functional, cell-based
# [6] = test system: NCI-H520; assay: Antiproliferative activity against human NCIH520 cells after 48 hrs after 48 hrs by WST-1 assay; assay type: functional, cell-based
# [7] = test system: MDA-MB-231; assay: Antiproliferative activity against human MDA-MB-231 cells assessed as cell viability at 10 uM after 48 hrs by WST-1 assay; assay type: functional; details: MDA-MB-231, 48 h, read-out: Activity
IC50 [2] [µM],IC50 [3] [µM],SMILES,viability at 10 µM [1] [%],further results
–,–,CCCC(C)N/C=C1\N=C(c2ccc[nH]2)C=C1OC (configuration not stated),< 20,–
3.6,3.5,COC1=CC(c2ccc[nH]2)=N/C1=C/c1ccc(CCCCCCC/C=C/C(C)=O)[nH]1,–,–
–,–,COC1=CC(c2ccc[nH]2)=N/C1=C\NCC1CCCCC1,< 20,–
0.14,0.36,CO[C@@H]1CC(c2ccc[nH]2)=N[C@]12O[C@@H](C)C[C@@H]1CCCCCCCc3ccc([nH]3)[C@H]12 [MARINEOSIN A],–,–
13.7,15.3,COC1=CC(c2ccc[nH]2)=N/C1=C\NCCC(C)C [TAMBJAMINE K],–,IC50 [4]: 0.0033 µM
–,–,COC1=CC(c2ccc[nH]2)=N/C1=C\NC1Cc2ccccc2C1,< 20,Activity [5]: inactive
1.8,4,COC1=CC(c2ccc[nH]2)=N/C1=C\NC1CCCc2ccccc21 (configuration not stated),< 10,Activity [6]: inactive; viability at 10 µM [7]: 40%
–,–,COC1=CC(c2ccc[nH]2)=N/C1=C\NC1CCc2ccccc21 (configuration not stated),< 20,–
